Measured values as given in patent publication US11467159B2, “Luminescent phospholipid analogs for the identification and isolation of circulating tumor cells” (CELLECTAR BIOSCIENCES, INC., priority 2016, dated 2022).

How the values were obtained:
[1] = tested on: xenograft and spontaneous tumor models; conditions: over 55 xenograft and spontaneous tumor models; cited from earlier work
circulating tumor cells = experiment: Flow cytometry identification and enumeration of circulating tumor cells in mononuclear cells from cancer patients' whole blood stained with CLR1501; format: cell-based, human; conditions: for CK−/EpCAM−/CLR1501+ cells (number): CD45−, CD14−, CD34−, nucleated
Description: (§1) Whole blood was collected in either Cell Save® collection tubes or ethylenediaminetetraacetic acid (“EDTA”) collection tubes from seven cancer patients with lung (patients 101 and 103), thyroid (patient 102), breast (patient 106), cervical (patient 104), squamous cell carcinoma (107), and colorectal (patient 108) cancer prior to (draw 1) and after (draw 2) therapy, when available. Mononuclear cells were isolated from the whole blood using a Ficoll-Paque density gradient. Cells from each patient were then incubated with an Fc blocker. The cells were then stained with fluorescently-tagged antibodies to CD45, CD14, CD34, EpCAM, and pan-Cytokeratin (CK), and a fluorescent PLE analog (“CLR1501”) for 30 minutes. Cells were then analyzed by flow cytometry to indicate the number of cells from each whole blood sample that were positive and/or negative for a particular marker. According to the current definition, CTCs were identified as live cells that were CD45−, CD14−, CD34−, CK+, and EpCAM+ (“by definition”). Due to prior experience with CD14+ monocytes/macrophages (FIG. 1), CD14+ cells were removed from the analyses due to high uptake of CLR1501. CD34+ normal […] cells were also removed from the analyses.
The first row of Tables 1 and 2 depicts the number of cells from each patient's blood draw that fulfilled the definition of a CTC: CD45−, CD14−, CD34−, CK+, and EpCAM+, and contained a nucleus. The second row depicts the number of cells from each patient's blood draw that were CD45−, CD14−, CD34−, CK+, and contained a nucleus. The third row depicts the number of cells from each patient's blood draw that were CLR 1501+, CD45−, CD14−, CD34−, CK+, and contained a nucleus. The fourth row depicts the number of cells from each patient's blood draw that were CD45−, CD14−, CD34−, and EpCAM+ and contained a nucleus. The fifth row depicts the number of cells from each patient's blood draw that were CLR 1501+, CD45−, CD14−, CD34−, and EpCAM+ and contained a nucleus. The sixth row depicts the number of cells from each patient's blood draw that were CLR 1501+, CD45−, CD14−, CD34−, CK−, and EpCAM−, and contained a nucleus.

[2] = tested on: CD14+ monocytes/macrophages; experiment: Flow cytometry uptake of CLR1501 in CD14+ cells of patient blood (FIG. 1); format: cell-based, human
Description: FIG. 1. […] Upper left quadrant indicates CD14−/CLR1501+ cells, upper right indicates CD14+/CLR1501+, bottom right indicates CD14+/CLR1501−, and bottom left indicates CD14−/CLR1501.
Whole blood was collected in either Cell Save® collection tubes or ethylenediaminetetraacetic acid (“EDTA”) collection tubes from seven cancer patients with lung (patients 101 and 103), thyroid (patient 102), breast (patient 106), cervical (patient 104), squamous cell carcinoma (107), and colorectal (patient 108) cancer prior to (draw 1) and after (draw 2) therapy, when available. Mononuclear cells were isolated from the whole blood using a Ficoll-Paque density gradient. Cells from each patient were then incubated with an Fc blocker. The cells were then stained with fluorescently-tagged antibodies to CD45, CD14, CD34, EpCAM, and pan-Cytokeratin (CK), and a fluorescent PLE analog (“CLR1501”) for 30 minutes. Cells were then analyzed by flow cytometry to indicate the number of cells from each whole blood sample that were positive and/or negative for a particular marker. According to the current definition, CTCs were identified as live cells that were CD45−, CD14−, CD34−, CK+, and EpCAM+ (“by definition”). Due to prior experience with CD14+ monocytes/macrophages (FIG. 1), CD14+ cells were removed from the analyses due to high uptake of CLR1501. CD34+ normal […] cells were also removed from the analyses. […]

CD45+ and CD34+ cells = experiment: Flow cytometry uptake of CLR1501 in remaining CD45+ and CD34+ cells of patient blood; format: cell-based, human; conditions: same patient, in comparison with CD14+ cells
Description: as §1

## C[N+](C)(C)CCOP(=O)([O-])OCCCCCCCCCCCCCCCCCCc1ccc(I)cc1 [CLR1404]
[1]
  uptake and retention in tumors: selective uptake and prolonged retention in tumors

## C[N+](C)(C)CCOP(=O)([O-])OCCCCCCCCCCCCCCCCCCc1ccc(C2=C3C=CC=[N+]3[B-](F)(F)n3cccc32)cc1 [CLR1501]
Circulating tumor cells; Cell Save tube, patient 101 draw 1, lung cancer
  CK−/EpCAM−/CLR1501+ cells (number): 1.4 M
Circulating tumor cells; Cell Save tube, patient 101 draw 2, lung cancer
  CK−/EpCAM−/CLR1501+ cells (number): 121,696 cells
Circulating tumor cells; Cell Save tube, patient 102 draw 1, thyroid cancer
  CK−/EpCAM−/CLR1501+ cells (number): 6.7 M
Circulating tumor cells; Cell Save tube, patient 102 draw 2, thyroid cancer
  CK−/EpCAM−/CLR1501+ cells (number): 7.9 M
Circulating tumor cells; Cell Save tube, patient 103, lung cancer
  CK−/EpCAM−/CLR1501+ cells (number): 5.3 M
Circulating tumor cells; Cell Save tube, patient 104 draw 1, cervical cancer
  CK−/EpCAM−/CLR1501+ cells (number): 1.3 M
Circulating tumor cells; Cell Save tube, patient 106, breast cancer
  CK−/EpCAM−/CLR1501+ cells (number): 278 cells
Circulating tumor cells; Cell Save tube, patient 107, carcinoma
  CK−/EpCAM−/CLR1501+ cells (number): 611,622 cells
Circulating tumor cells; Cell Save tube, patient 108 draw 1, colorectal cancer
  CK−/EpCAM−/CLR1501+ cells (number): 1,062 cells
Circulating tumor cells; Cell Save tube, patient 108 draw 2, colorectal cancer
  CK−/EpCAM−/CLR1501+ cells (number): 1.1 M
Circulating tumor cells; EDTA tube, patient 101 draw 1, lung cancer
  CK−/EpCAM−/CLR1501+ cells (number): 1.8 M
Circulating tumor cells; EDTA tube, patient 101 draw 2, lung cancer
  CK−/EpCAM−/CLR1501+ cells (number): 30,222 cells
Circulating tumor cells; EDTA tube, patient 102 draw 1, thyroid cancer
  CK−/EpCAM−/CLR1501+ cells (number): 1.5 M
Circulating tumor cells; EDTA tube, patient 102 draw 2, thyroid cancer
  CK−/EpCAM−/CLR1501+ cells (number): 10.9 M
Circulating tumor cells; EDTA tube, patient 103, lung cancer
  CK−/EpCAM−/CLR1501+ cells (number): 2.5 M
Circulating tumor cells; EDTA tube, patient 104, cervical cancer
  CK−/EpCAM−/CLR1501+ cells (number): 4.0 M
Circulating tumor cells; EDTA tube, patient 106, breast cancer
  CK−/EpCAM−/CLR1501+ cells (number): 19,585 cells
Circulating tumor cells; EDTA tube, patient 107, carcinoma
  CK−/EpCAM−/CLR1501+ cells (number): 147,641 cells
Circulating tumor cells; EDTA tube, patient 108 draw 1, colorectal cancer
  CK−/EpCAM−/CLR1501+ cells (number): 29,584 cells
Circulating tumor cells; EDTA tube, patient 108 draw 2, colorectal cancer
  CK−/EpCAM−/CLR1501+ cells (number): 753,387 cells
Circulating tumor cells; all cancer types, either blood collection tube, listed as 2 vs row 3 of Table 1 or 2
  CK+ cells identified by CLR 1501: 99-100%
Circulating tumor cells; all cancer types, either blood collection tube, listed as 4 vs row 5 of Table 1 or 2
  EpCAM+ cells identified by CLR 1501: 35-100%
Circulating tumor cells; all seven patient samples
  uptake of CLR1501 by CTCs (by definition): positive uptake
[2]; CD14+ monocytes/macrophages, FIG. 1
  uptake of CLR1501 in CD14+ cells: high uptake
[2]; CD45−, CD34− cells from patient 108 (colorectal cancer), FIG. 1 panel B
  cells positive for CD14+ that are also positive for CLR1501: 99.7%
CD45+ and CD34+ cells
  uptake of CLR1501 by remaining CD45+ and CD34+ cells: not take up CLR1501 to a large extent
